Literature values in patent US5965741A, “Ortho-substituted aromatic ether compounds and their use in pharmaceutical compositions for pain relief” (Zeneca Limited, priority 1994, dated 1999).

Test system: EP1 receptors
Settings: guinea pig ileum or dog fundus

In the case of `CC(=O)NNC(=O)N1Cc2ccccc2Oc2ccc(Cl)cc21` [SC-19220], the “block of the effect of PGE2” value is given as “blocks the effect of PGE2”.
